Test results from BindingDB's records for doi:10.1021/jm00008a002 (Warner-Lambert, 1995).

Target: Endothelin-1 receptor (Oryctolagus cuniculus)
Assay: Tested for antagonistic activity against Endothelin A receptor in the rabbit renal artery vascular smooth muscle cells.

Row | IC50 [nM] | Structure (SMILES)
1 | 6 | COc1ccc(C2(O)OC(=O)C(c3ccc4c(c3)OCO4)=C2Cc2ccc(OC)c(C)c2)cc1 (configuration not stated) [3-Benzo[1,3]dioxol-5-yl-5-hydroxy-4-(4-methoxy-3-methyl-benzyl)-5-(4-methoxy-phenyl)-5H-furan-2-one]
2 | 310 | COc1ccc(CC2=C(c3ccc(Cl)c(Cl)c3)C(=O)OC2(O)c2ccc(OC)cc2)cc1 (configuration not stated) [3-(3,4-Dichloro-phenyl)-5-hydroxy-4-(4-methoxy-benzyl)-5-(4-methoxy-phenyl)-5H-furan-2-one]
